# Laboratory results: US20100158850A1, “DENDRIMER BASED MODULAR PLATFORMS” (The Regents of the University of Michigan, priority 2008, published 2010)
# How the values were obtained:
# [1] = molecular target: T1, folic acid receptor (Homo sapiens, UniProt P15328); assay: Blocking of folate receptors: uptake of targeted platform 15 in KB cells with 20-fold excess blocking agent; format: cell-based; conditions: for Blocking of uptake of targeted platform 15 (FIG. 5d, 5e): 20 fold excess of blocking agent (for 13 with respect to folic acid content)
# T1 construct: performed using FA-receptor-expressing KB cells (ATCC #CCL-17); host or cells: KB cells
# Procedure: (§1) The uptake of the synthesized conjugates was performed using FA-receptor-expressing KB cells (ATCC #CCL-17) as previously described (see, e.g., Thomas et al, J. Med. Chem., 48, 3729-3735, 2005; herein incorporated by reference in its entirety). Cells were maintained in FA-free Roswell Park Memorial Institute-1640 (RPMI 1640) medium supplemented with 10% Fetal Bovine serum (FBS), […] L-glutamine, 100 U/ml penicillin and 100 μg/ml streptomycin in 5% CO2 at 37° C. Cells were planted into 24 wells plate at density 250,000 per well and allowed to reach ˜90% confluent on the day of the experiment. They were rinsed and incubated in serum free medium with conjugates for 1 hour at 37° C. in 5% CO2. In some wells, a 20-fold excess of free folic acid or the folic acid conjugated dendrimer was added 30 minutes prior to the addition of the dendrimer platform for the blocking of folate receptors.
# (§2) The cellular fluorescence was quantified on a Beckman-Coulter EPICS-XL MCL flow cytometer, and the data were analyzed using Expo32 software (Beckman-Coulter, Miami, Fla.). Cells were trypsinized, rinsed and suspended in PBS containing 0.1% bovine serum albumin (PBSB). The viable cells were gated, and the mean FL1-fluorescence of 10,000 cells was quantified. Error bars are calculated using the half-peak coefficient of variation (HPCV) (see, e.g., Marie, D.; et al., Biol. Cell 1993, 78, 41-51; herein incorporated by reference in its entirety).
# The final set of controls investigated active blocking of the folic acid receptor by either free folic acid (FIGS. 5d and 5f-green) or a folic acid-dendrimer conjugate without a fluorescent dye (13) (FIGS. 5e and 5f-orange) to prevent the specific up-take of the folic acid targeted dendrimer systema A 20 fold excess of blocking agent was employed relative to the targeted platform. For the blocking experiment using the single dendrimer-folic acid conjugate (13), molar equivalence was based on the folic acid content of the sample rather than the dendrimer content. Both blocking agents were evaluated at 30 nM, 100 nM, 300 nM, and 1000 nM. […] While the dendrimer-folic acid conjugate is not as effective at blocking as the free folic acid, approximately 75% blocking is achieved.
# [2] = tested on: FA-receptor-expressing KB cells; assay: Cellular uptake of dendrimer conjugates in KB cells measured by flow cytometry; format: cell-based, human
# Procedure: as §1, §2
# Cellular uptake of the folic acid targeted dendrimer system (15) at four different concentrations (30 nM, 100 nM, 300 nM, and 1000 nM of 15) was measured in KB cells that express a high cellular membrane concentration of folic acid receptor (FAR). Fluorescence uptake was quantified by Flow Cytometry.
# A series of control experiments were performed in order to ensure that uptake of the folic acid targeted dendrimer system (15) was occurring via receptor-mediated endocytosis and not non-specific membrane interactions. […] The second control sample contained a non-conjugated (un-clicked) mixture of the two dendrimers functionalized with either FITC or folic acid (13 and 14). Uptake of this mixture was quantified at 30 nM, 100 nM, and 300 nM (FIGS. 5c and 5f-teal). […] This control eliminates the possibility that the dendrimer modules could form a non-covalently linked complex that would be internalized. A third control sample (18) was composed of an un-targeted dendrimer module (17) coupled to the FITC conjugated imaging module (14). The un-targeted dual module platform (18) was assembled under the same conditions used to form the folic acid targeted platform (15). […] This un-targeted dendrimer platform control matches the molecular weight and size of the folic acid targeted dendrimer system (15).
# T1 sequence (P15328 25-234): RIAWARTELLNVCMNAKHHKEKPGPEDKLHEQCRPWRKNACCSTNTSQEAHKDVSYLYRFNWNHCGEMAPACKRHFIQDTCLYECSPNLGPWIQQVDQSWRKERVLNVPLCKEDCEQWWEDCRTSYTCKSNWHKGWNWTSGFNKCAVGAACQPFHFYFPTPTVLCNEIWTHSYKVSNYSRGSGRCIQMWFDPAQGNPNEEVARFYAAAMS
compound,measurement,setting,value
"Nc1nc2ncc(CNc3ccc(C(=O)N[C@@H](CCC(=O)O)C(=O)O)cc3)nc2c(=O)[nH]1 [free folic acid, folic acid, reference compound]","Blocking of uptake of targeted platform 15 (FIG. 5d, 5e)",[1],successfully blocked
same,Blocking of uptake of targeted platform 15,"[1]; 20 fold excess, added 30 minutes before, concentrations up to 100 nM",Complete blocking
G5-Ac110.7-L-G5-Ac106-FITC3.2 [Compound 18],Mean fluorescence uptake beyond the background level,"[2]; KB cells, concentrations up to 300 nM",no uptake was observed beyond the background level
FA3.5-G5-Ac107-L-G5-Ac106-FITC3.2 [Compound 15],"Cellular uptake (fluorescence, flow cytometry)","[2]; KB cells, 1 hour at 37° C., 30 nM, 100 nM, 300 nM and 1000 nM",dose dependent uptake
same,Concentration at which uptake saturates,"[2]; KB cells, 1 hour at 37° C., tested at 30-1000 nM",100 nM
same,Specific targeting of folic acid receptor in vitro,[2]; human epithelial cancer cell line (KB),found to specifically target the over-expressed folic acid receptor
G5-Ac106-Azide2.5-FITC3.2 [Compound 14],Cellular uptake (FIG. 5b),"[2]; KB cells, 30 nM, 100 nM and 300 nM",not observed
same,Cellular uptake above the background level,"[2]; KB cells, 30 nM, 100 nM, 300 nM and 1000 nM",No uptake was observed
same,Cellular uptake (FIG. 5b),"[2]; KB cells, 1000 nM",Very minimal uptake
G5-Ac107-Alkyne1.6-FA3.5 [Compound 13],Blocking of uptake of targeted platform 15,"[1]; 20 fold excess based on folic acid content, evaluated at 30-1000 nM",approximately 75%
same,"Blocking of uptake of targeted platform 15 (FIG. 5d, 5e)",[1],successfully blocked
